# Measurements published in PMC6801448, “The Antioxidant and Antiproliferative Activities of 1,2,3-Triazolyl-L-Ascorbic Acid Derivatives” (International Journal of Molecular Sciences, 2019).
# Read-outs that look alike come from different tables or passages of the source.
# What was measured:
# [1] = system: SW620 (colorectal adenocarcinoma, metastatic); assay: MTT proliferation assay, SW620; format: cell-based; conditions: Homo sapiens, SW-620, 72 h
# Description: (§1) Human tumor cell lines HeLa (cervical carcinoma), SW620 (colorectal adenocarcinoma, metastatic), A549 (lung adenocarcinoma), MCF−7 (breast adenocarcinoma), CFPAC-1 (pancreatic adenocarcinoma, metastatic), HCT-116 (colorectal carcinoma), and HepG2 (hepatocellular carcinoma), and normal cell lines HFF-1 (foreskin fibroblasts) and WI-38 (immortalized human lung fibroblast), were from the US American Type Culture Collection (ATCC, Manassas, VA, USA). Cells were cultured in a liquid nutrient medium (Dulbecco’s Modified Eagle Medium, LONZA, Basel, Switzerland) supplemented with 10% fetal bovine serum (FBS, Gibco, Grand Island, NY, USA), 2 mM L-glutamine (GIBCO, Grand Island, NY, USA), 100 μg/mL penicillin, and 100 μg/mL streptomycin (LONZA, Basel, Switzerland), in an incubator (NÜVE, Ankara, Turkey), at a humid atmosphere with 5% CO2 at 37 °C. Trypsin/EDTA Solution (Lonza, Basel, Switzerland), was used for cell passaging and cell detachment.
# (§2) Adherent cells were seeded on 96 well microtiter plates (Falcon, New York, NY, USA) at a seeding density of 5000 cells per well, added in 150 μL of cell suspension in a nutrient medium. 24 h after seeding, cells were treated with compound 4b–4g, 4i, 4k–4t, 4v, 7c–7g, and 7i–7q dilutions in the range of 0.01 μM to 100 μM. L-ascoric acid (Sigma Aldrich, Darmstadt, Germany) and Carboxyamidotriazole (Sigma Aldrich, Darmstadt, Germany) were used as control compounds. Incubation of the cells with the compounds were performed for 72 h in a 5% CO2, in humid atmosphere at 37 °C. After incubation, nutrient medium was removed and 40 μL of the MTT reagent ([…]-2,5-diphenyltetrazole bromide (Invitrogen, Carlsbad, CA, USA) was added to each well. 3 h after incubation, 160 μL of DMSO (VWR CHEMICALS, Radnor, PA, USA) were added to each well to dissolve the crystals of purple formazane. The absorbance was measured at 570 nm (TECAN SUNRISE Microtiter plate reader (Männedorf, Switzerland). The experimentally measured optical densities (OD) were converted to the PG (percentage of growth), using the formulas according to the protocol assumed by NIH (National Institute of Health). The IC50 values (concentration causing 50% cell growth inhibition) for each compound were calculated by regression analysis of the survival count curve of the concentrations of the tested compounds. The results were processed in Excel 2010 (Microsoft, Redmond, WA, USA).
# [2] = system: WI-38 (lung fibroblasts); assay: MTT proliferation assay, WI-38; format: cell-based; conditions: Homo sapiens, 72 h, normal lung fibroblasts
# Description: as §1, §2
# [3] = system: tested cell lines (A549, CFPAC-1, HCT-116, HeLa, HepG2, MCF-7, SW620, WI-38, HFF-1); assay: MTT proliferation assay, whole tested cell panel; format: cell-based, Human; conditions: 0.01 µM to 100 µM, 72 h
# Description: The C-6 substituted 1,2,3-triazole derivatives of L-ASA within the C5-OH group ([…], 4i, 4k−4t, and 4v) and with the C4=C5 double bond (7c−7g and 7i−7q) were evaluated against seven malignant tumor cell lines: lung adenocarcinoma (A549), ductal pancreatic adenocarcinoma (CFPAC-1), colorectal carcinoma (HCT-116), cervical carcinoma (HeLa), hepatocellular carcinoma (HepG2), breast adenocarcinoma (MCF-7), colorectal adenocarcinoma, and metastatic (SW620); as well as normal cell lines: lung fibroblasts (WI-38) and foreskin fibroblasts (HFF-1) (Table 3, Table S1, Supplementary Information). L-ASA was used as a positive control, and carboxyamidotriazole, a known antiproliferative agent that inhibits tumor cell growth, invasion, and metastasis, and 5-fluorouracil (5-FU), were used as reference compounds.
# as §1, §2
# [4] = system: MCF-7 (breast adenocarcinoma); assay: MTT proliferation assay, MCF-7; format: cell-based, Human; conditions: Homo sapiens, MCF7; 72 h, MTT
# Description: as §1, §2
# [5] = system: HeLa (cervical carcinoma); assay: MTT proliferation assay, HeLa; format: cell-based; conditions: Homo sapiens, 72 h
# Description: as §1, §2
# [6] = DPPH radical scavenging assay; format: biochemical
# Description: Likewise, L-ASA, the 1,2,3-triazole L-ASA derivatives with free C2-OH and C3-OH groups were expected to be potent antioxidants. Therefore, they were tested as radical scavengers by reaction with the stable free radical 2,2-diphenyl-1-picrylhydrazyl (DPPH^•).
# Antioxidant capacity of selected compounds was assessed by 2,2-diphenyl-1-picrylhydrazyl assay (DPPH, Sigma Aldrich, Darmstadt, Germany), in which the antioxidant activity of compounds is measured by the reaction between a stable radical of 1,1-diphenyl-2-picylhydrazil (DPPH^•) and a selected compound according to the manufacturer recommendations. Briefly, compounds 4b–4e, 4f–4h, 4k, 4l, 4o, 4p–4s, 4t, 4v, 7c–7f, 7i–7n, 7q, 7p, and 7o were tested at 0.06, 0.12, 0.18, 0.23, 0.25, and 0.28 mM. L-ascorbic acid was used as the reference compound. Absorbance was measured 5 and 10 min after incubation of the compounds with the DPPH reagent. The reduction of DPPH with selected compounds was monitored by measuring the absorbance at a wavelength of 517 nm on the monochromator (Infinite M200 PRO, TECAN, Männedorf, Switzerland).
# [7] = system: HepG2 (hepatocellular carcinoma); assay: MTT proliferation assay, HepG2; format: cell-based; conditions: Homo sapiens, 72 h
# Description: as §1, §2
# [8] = system: A549 (lung adenocarcinoma); assay: MTT proliferation assay, A549; format: cell-based; conditions: Homo sapiens, 72 h
# Description: as §1, §2
# [9] = system: HFF-1 (foreskin fibroblasts); assay: MTT proliferation assay, HFF-1; format: cell-based; conditions: Homo sapiens, 72 h, normal foreskin fibroblasts
# Description: as §1, §2
# [10] = system: HCT-116 (colorectal carcinoma); assay: MTT proliferation assay, HCT-116; format: cell-based; conditions: Homo sapiens, 72 h
# Description: as §1, §2
# [11] = system: CFPAC-1 (ductal pancreatic adenocarcinoma); assay: MTT proliferation assay, CFPAC-1; format: cell-based; conditions: Homo sapiens, 72 h
# Description: as §1, §2
# [12] = 5 min treatment, read-out: IC50 of DPPH• inhibition, Treatm. 5 min
# [13] = 10 min treatment, read-out: IC50 of DPPH• inhibition, Treatm. 10 min
Compound,IC50 [1] [µM],IC50 [2] [µM],antiproliferative / cytotoxic effect on the tested cell lines (in words) [3],IC50 [4] [µM],IC50 [5] [µM],melting point [°C],"IC50 [6, 12] [µM]","IC50 [6, 13] [µM]",IC50 [7] [µM],IC50 [8] [µM],IC50 [9] [µM],IC50 [10] [µM],IC50 [11] [µM]
"Cc1ccc(-c2cn(C[C@H](O)[C@H]3OC(=O)C(O)=C3O)nn2)cc1 [Compound 4f, 6-deoxy-6-[4-tolyl-1,2,3-triazol-1-yl]-L-ascorbic acid]",> 100,> 100,did not show any cytotoxic effects,> 100,> 100,152 to 154,200 ± 20,140 ± 10,> 100,> 100,69.3,> 100,> 100
"COc1ccc(-c2cn(C[C@H](O)[C@H]3OC(=O)C(O)=C3O)nn2)cc1 [Compound 4g, 6-deoxy-6-[4-methoxyphenyl-1,2,3-triazol-1-yl]-L-ascorbic acid]",> 100,> 100,did not show any cytotoxic effects,> 100,> 100,,190 ± 10,190 ± 10,> 100,> 100,> 100,> 100,> 100
"O=C1O[C@H]([C@@H](O)Cn2cc(-c3cc(F)cc(F)c3)nn2)C(O)=C1O [Compound 4d, 6-deoxy-6-[4-(3,5-difluorophenyl)-1,2,3-triazol-1-yl]-L-ascorbic acid]",92,> 100,nonspecific cytostatic effect,39.8,56.8,189 to 191,270 ± 10,270,95.3,81.7,0.12,64.8,75.8
"NC(=O)c1nnn(Cc2cc(Cl)c(C(=O)c3ccc(Cl)cc3)c(Cl)c2)c1N [Carboxyamidotriazole, carboxyamidotriazole, reference compound]",41.3,,"non-selective, moderate antiproliferative effect",14.7,31.8,,,,40.1,51.6,32.6,19.9,41.6
"O=C1O[C@H]([C@@H](O)Cn2ccnn2)C(O)=C1O [Compound 4b, 6-deoxy-6-(1,2,3-triazol-1-yl)-L-ascorbic acid]",> 100,> 100,not cytotoxic,> 100,> 100,219 to 221,130,130,> 100,> 100,,> 100,> 100
